This is an account of results in patent US9096646B2, “CXCR4 receptor compounds” (priority 2008, dated 2015).

Like-named read-outs stand apart in the source and are kept apart here. Peptide text beside a SMILES is read from it. * marks the point of attachment. Palmitoyl = CCCCCCCCCCCCCCCC(=O)*

The target of assay [1] is T1, CXCR4 (Homo sapiens, UniProt P61073). Put plainly: Chemotaxis assay using SUP B-15 cells. The following applies: SUP-B15, Table 18, i1 loop, SUP B-15 cells, drug conc 1.0 uM. Format: cell-based. Set-up: A similar procedure was followed for chemotaxis using SUP B-15 cells; endogenous in cells; host or cells: SUP B-15 cells. The text has this:
Chemotaxis assays were utilized to determine the effect of compound on the directed migration of cells in response to chemokine. Cells that express a receptor of interest were placed in the upper chamber of a Transwell chemotaxis plate (Corning) and allowed to migrate through a polycarbonate membrane to a lower chamber containing the appropriate receptor-specific ligand. To test for antagonist or potentiating activity, cells were mixed with the desired concentration of compound prior to addition to the upper chamber. Conversely, agonist activity was determined by adding compound in the bottom chamber only without endogenous chemokine. The effect of compound is quantified by several parameters, including the extent of maximum response, the shift of agonist dose-response curves, and the area under the curve.
To measure the CXCR4-dependent migration of cells, the appropriate concentration of CXCL12 (SDF1a) or test compound was diluted in phenol red-free RMPI-1640/20 mM HEPES/0.5% BSA buffer and placed in the bottom chamber of a transwell apparatus. CCRF-CEM cells, a human T-cell ALL line that endogenously expresses CXCR4, were washed twice in buffer and resuspended at 133,000 cells/ml. A 75 μl sample of this suspension is mixed with the test compound of interest and placed in the upper chamber of a 5-micron transwell apparatus.
To initiate cell migration, the assembled transwell plate was placed in a 37° C., […] incubator for a specified time interval, typically between 30 and 120 minutes. After incubation, the unit was disassembled and the lower chamber placed at −80° C. overnight to facilitate lysis of cells. To quantify migrated cells, plates were thawed at 37° C. in a humidified chamber, and then a sample volume was removed from each well and mixed with an equal volume of CyQuant (Invitrogen) working solution in opaque plates. The fluorescence intensity of each well represents the DNA content and is directly proportional to cell number. Each sample was typically run in duplicate or triplicate and each plate included two separate negative controls. The plate background control, which included no cells in the upper chamber, was subtracted from all values. The negative control had no agonist added in the lower chamber, and served to establish the baseline for random migration. A similar procedure was followed for chemotaxis using SUP B-15 cells.

For assay [2], the target named is T1, CXCR4. Put plainly: Chemotaxis assay, effect on SDF1-a (CXCL12) induced migration of CCRF-CEM cells. The assay is classed as cell-based. The following applies: CCRF-CEM, Table 18, i1 loop, CEM cells; for activity at 1 µM: drug conc 1.0 uM; for activity at 0.03 µM: drug conc 0.03 uM; for activity at 0.1 µM: drug conc 0.1 uM; for activity at 0.3 µM: drug conc 0.3 uM; for activity at 3 µM: drug conc 3.0 uM. Set-up: a human T-cell ALL line that endogenously expresses CXCR4; endogenous in cells; host or cells: CCRF-CEM (human T-cell ALL line).
Experimental: To initiate cell migration, the assembled transwell plate was placed in a 37° C., 0.5% CO2 incubator for a specified time interval, typically between 30 and 120 minutes. After incubation, the unit was disassembled and the lower chamber placed at −80° C. overnight to facilitate lysis of cells. To quantify migrated cells, plates were thawed at 37° C. in a humidified chamber, and then a sample volume was removed from each well and mixed with an equal volume of CyQuant (Invitrogen) working solution in opaque plates. The fluorescence intensity of each well represents the DNA content and is directly proportional to cell number. […] The plate background control, which included no cells in the upper chamber, was subtracted from all values.

T1 sequence (P61073 whole entry): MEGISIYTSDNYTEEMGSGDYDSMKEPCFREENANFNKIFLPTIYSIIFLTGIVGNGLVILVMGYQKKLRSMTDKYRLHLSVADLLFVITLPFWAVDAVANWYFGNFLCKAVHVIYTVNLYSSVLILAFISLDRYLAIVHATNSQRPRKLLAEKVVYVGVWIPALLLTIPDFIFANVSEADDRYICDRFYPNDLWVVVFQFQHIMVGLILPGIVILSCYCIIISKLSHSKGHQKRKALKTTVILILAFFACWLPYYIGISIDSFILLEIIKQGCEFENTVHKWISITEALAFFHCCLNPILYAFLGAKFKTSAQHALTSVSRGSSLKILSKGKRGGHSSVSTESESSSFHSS

Turning to `CCCCCCCCCCCCCCCC(=O)N[C@H](C(=O)N[C@@H](CCSC)C(=O)NCC(=O)N[C@@H](Cc1ccc(O)cc1)C(=O)N[C@@H](CCC(N)=O)C(=O)N[C@@H](CCCCN)C(=O)N[C@@H](CCCCN)C(=O)N[C@@H](CC(C)C)C(=O)N[C@@H](CCCNC(=N)N)C(=O)N[C@@H](CO)C(=O)N[C@@H](CCSC)C(=O)N[C@H](C(=O)N[C@@H](CC(=O)O)C(N)=O)[C@@H](C)O)C(C)C` [Compound 35] (Palmitoyl-VMGYQKKLRSMTD-NH2), the activity at 1 µM at CXCR4 [1] (read-out: AUC (% of)) was 31.7%; at CXCR4 [1] (read-out: Max (% of)) it was 49.3%; on CXCR4 [2] (read-out: AUC (% of)) it was 57.9%; on CXCR4 [2] (read-out: Max (% of)) it was 57%.

On to `CCCCCCCCCCCCCCCC(=O)N[C@@H](CCSC)C(=O)NCC(=O)N[C@@H](Cc1ccc(O)cc1)C(=O)N[C@@H](CCC(N)=O)C(=O)N[C@@H](CCCCN)C(=O)N[C@@H](CCCCN)C(=O)N[C@@H](CC(C)C)C(=O)N[C@@H](CCCNC(=N)N)C(=O)N[C@@H](CO)C(=O)N[C@@H](CCSC)C(=O)N[C@H](C(=O)N[C@@H](CC(=O)O)C(=O)N[C@@H](CCCCN)C(=O)N[C@@H](Cc1ccc(O)cc1)C(N)=O)[C@@H](C)O` [Compound 37] (Palmitoyl-MGYQKKLRSMTDKY-NH2), for which the activity at 1 µM is 63.5% on CXCR4 [1] (read-out: AUC (% of)), 91.1% on CXCR4 [1] (read-out: Max (% of)), 92.3% at CXCR4 [2] (read-out: AUC (% of)) and 97.8% on CXCR4 [2] (read-out: Max (% of)).

Take `CCCCCCCCCCCCCCCC(=O)N[C@@H](CCSC)C(=O)NCC(=O)N[C@@H](Cc1ccc(O)cc1)C(=O)N[C@@H](CCC(N)=O)C(=O)N[C@@H](CCCCN)C(=O)N[C@@H](CCCCN)C(=O)N[C@@H](CC(C)C)C(=O)N[C@@H](CCCNC(=N)N)C(=O)N[C@@H](CO)C(=O)N[C@@H](CCSC)C(=O)N[C@H](C(=O)N[C@@H](CC(=O)O)C(=O)N[C@@H](CCCCN)C(=O)N[C@@H](Cc1ccc(O)cc1)C(=O)N[C@@H](CCCNC(=N)N)C(=O)N[C@@H](CC(C)C)C(N)=O)[C@@H](C)O` [Compound 38, Pal-MGYQKKLRSMTDKYRL-amide] (Palmitoyl-MGYQKKLRSMTDKYRL-NH2): the activity at 1 µM is 32.4% at CXCR4 [1] (read-out: AUC (% of)) and 49.6% on CXCR4 [1] (read-out: Max (% of)).

For the compound `CCCCCCCCCCCCCCCC(=O)N[C@@H](Cc1ccc(O)cc1)C(=O)N[C@@H](CCC(N)=O)C(=O)N[C@@H](CCCCN)C(=O)N[C@@H](CCCCN)C(=O)N[C@@H](CC(C)C)C(=O)N[C@@H](CCCNC(=N)N)C(=O)N[C@@H](CO)C(=O)N[C@@H](CCSC)C(=O)N[C@H](C(=O)N[C@@H](CC(=O)O)C(=O)N[C@@H](CCCCN)C(=O)N[C@@H](Cc1ccc(O)cc1)C(=O)N[C@@H](CCCNC(=N)N)C(=O)N[C@@H](CC(C)C)C(=O)N[C@@H](Cc1cnc[nH]1)C(=O)N[C@@H](CC(C)C)C(=O)N[C@@H](CO)C(=O)N[C@H](C(N)=O)C(C)C)[C@@H](C)O` [Compound 40] (Palmitoyl-YQKKLRSMTDKYRLHLSV-NH2), the activity at 1 µM at CXCR4 [1] (read-out: AUC (% of)) was determined as 71.9%; at CXCR4 [1] (read-out: Max (% of)), 71.2%.

Turning to `CCCCCCCCCCCCCCCC(=O)N[C@@H](CCCCN)C(=O)N[C@@H](CCCCN)C(=O)N[C@@H](CC(C)C)C(=O)N[C@@H](CCCNC(=N)N)C(=O)N[C@@H](CO)C(=O)N[C@@H](CCSC)C(=O)N[C@H](C(=O)N[C@@H](CC(=O)O)C(=O)N[C@@H](CCCCN)C(=O)N[C@@H](Cc1ccc(O)cc1)C(=O)N[C@@H](CCCNC(=N)N)C(=O)N[C@@H](CC(C)C)C(=O)N[C@@H](Cc1cnc[nH]1)C(=O)N[C@@H](CC(C)C)C(=O)N[C@@H](CO)C(=O)N[C@H](C(N)=O)C(C)C)[C@@H](C)O` [Compound 41] (Palmitoyl-KKLRSMTDKYRLHLSV-NH2), the activity at 1 µM on CXCR4 [1] (read-out: AUC (% of)) was 51.7%; at CXCR4 [1] (read-out: Max (% of)), 41.7%; on CXCR4 [2] (read-out: AUC (% of)), 66.7%; at CXCR4 [2] (read-out: Max (% of)), 76.8%.

Regarding `CCCCCCCCCCCCCCCC(=O)N[C@@H](CCCCN)C(=O)N[C@@H](CCCCN)C(=O)N[C@@H](CC(C)C)C(=O)N[C@@H](CCCNC(=N)N)C(=O)N[C@@H](CO)C(=O)N[C@@H](CCSC)C(=O)N[C@H](C(=O)N[C@@H](CC(=O)O)C(=O)N[C@@H](CCCCN)C(=O)N[C@@H](Cc1ccc(O)cc1)C(=O)N[C@@H](CCCNC(=N)N)C(=O)N[C@@H](CC(C)C)C(=O)N[C@@H](Cc1cnc[nH]1)C(=O)N[C@@H](CC(C)C)C(N)=O)[C@@H](C)O` [Compound 42] (Palmitoyl-KKLRSMTDKYRLHL-NH2), the activity at 1 µM was 43.8% at CXCR4 [1] (read-out: AUC (% of)) and 33.5% on CXCR4 [1] (read-out: Max (% of)).

As for `CCCCCCCCCCCCCCCC(=O)N[C@@H](CCCCN)C(=O)N[C@@H](CCCCN)C(=O)N[C@@H](CC(C)C)C(=O)N[C@@H](CCCNC(=N)N)C(=O)N[C@@H](CO)C(=O)N[C@@H](CCSC)C(=O)N[C@H](C(=O)N[C@@H](CC(=O)O)C(=O)N[C@@H](CCCCN)C(=O)N[C@@H](Cc1ccc(O)cc1)C(=O)N[C@@H](CCCNC(=N)N)C(=O)N[C@@H](CC(C)C)C(=O)N[C@@H](Cc1cnc[nH]1)C(N)=O)[C@@H](C)O` [Compound 43] (Palmitoyl-KKLRSMTDKYRLH-NH2), the activity at 1 µM at CXCR4 [1] (read-out: AUC (% of)) came to 70.8%. Further, on CXCR4 [1] (read-out: Max (% of)), the activity at 1 µM turned out to be 55.8%. Besides, the activity at 0.01 µM at CXCR4 [2] (drug conc 0.01 uM, read-out: AUC (% of)) was 110%. On CXCR4 [2] (read-out: AUC (% of)), the activity at 0.03 µM is 110%, the activity at 0.1 µM was determined as 108%, the activity at 0.3 µM was 97.9% and the activity at 3 µM was 79.4%. Moreover, on CXCR4 [2] (read-out: Max (% of)), the activity at 0.03 µM amounted to 92.7%, the activity at 0.1 µM is 93.6%, the activity at 0.3 µM came out at 84.5% and the activity at 1 µM worked out at 78.9%. For the same compound, the activity at 3 µM at CXCR4 [2] (read-out: Max (% of)) turned out to be 76.3%.

Turning to `CCCCCCCCCCCCCCCC(=O)N[C@@H](CCCCN)C(=O)N[C@@H](CCCCN)C(=O)N[C@@H](CC(C)C)C(=O)N[C@@H](CCCNC(=N)N)C(=O)N[C@@H](CO)C(=O)N[C@@H](CCSC)C(=O)N[C@H](C(=O)N[C@@H](CC(=O)O)C(=O)N[C@@H](CCCCN)C(=O)N[C@@H](Cc1ccc(O)cc1)C(=O)N[C@@H](CCCNC(=N)N)C(=O)N[C@@H](CC(C)C)C(N)=O)[C@@H](C)O` [Compound 44, Pal-KKLRSMTDKYRL-amide] (Palmitoyl-KKLRSMTDKYRL-NH2), the activity at 1 µM was 25.9% on CXCR4 [1] (read-out: AUC (% of)) and 31.5% on CXCR4 [1] (read-out: Max (% of)).

As for `CCCCCCCCCCCCCCCC(=O)N[C@@H](CCCCN)C(=O)N[C@@H](CCCCN)C(=O)N[C@@H](CC(C)C)C(=O)N[C@@H](CCCNC(=N)N)C(=O)N[C@@H](CO)C(=O)N[C@@H](CCSC)C(=O)N[C@H](C(=O)N[C@@H](CC(=O)O)C(=O)N[C@@H](CCCCN)C(=O)N[C@@H](Cc1ccc(O)cc1)C(=O)N[C@@H](CCCNC(=N)N)C(N)=O)[C@@H](C)O` [Compound 45] (Palmitoyl-KKLRSMTDKYR-NH2), the activity at 1 µM at CXCR4 [1] (read-out: AUC (% of)) amounted to 178%; at CXCR4 [1] (read-out: Max (% of)), 194%.

On to `CCCCCCCCCCCCCCCC(=O)N[C@@H](CCCCN)C(=O)N[C@@H](CCCCN)C(=O)N[C@@H](CC(C)C)C(=O)N[C@@H](CCCNC(=N)N)C(=O)N[C@@H](CO)C(=O)N[C@@H](CCSC)C(=O)N[C@H](C(=O)N[C@@H](CC(=O)O)C(=O)N[C@@H](CCCCN)C(=O)N[C@@H](Cc1ccc(O)cc1)C(N)=O)[C@@H](C)O` [Compound 46] (Palmitoyl-KKLRSMTDKY-NH2), for which the activity at 1 µM amounted to 87.2% at CXCR4 [1] (read-out: AUC (% of)), 82.9% on CXCR4 [1] (read-out: Max (% of)), 69.7% on CXCR4 [2] (read-out: AUC (% of)) and 116% at CXCR4 [2] (read-out: Max (% of)).
